Experimental data published in BindingDB's records for doi:10.1016/j.bmcl.2007.07.028 (Bristol-Myers Squibb, 2007).

assay: Antagonist activity at CCR2 in human PBMCs assessed as inhibition of MCP1-induced chemotaxis

First: Cc1ccc(CNC[C@H](NC(=O)CNC(=O)c2cc(C(F)(F)F)ccc2NC(=O)NC(C)C)C(=O)NC(C)(C)C)c(C)c1 [(S)-1-(2-((2-(3-(2,4-dimethylbenzylamino)-1-(tert-butylamino)-1-oxopropan-2-ylamino)-2-oxoethyl)carbamoyl)-4-(trifluoromethyl)phenyl)-3-isopropylurea]
Second: CCNc1ccc(C(F)(F)F)cc1C(=O)NCC(=O)N[C@@H](CNCc1ccc(C)cc1C)C(=O)NC(C)(C)C [(S)-N-(2-(3-(2,4-dimethylbenzylamino)-1-(tert-butylamino)-1-oxopropan-2-ylamino)-2-oxoethyl)-2-(ethylamino)-5-(trifluoromethyl)benzamide]
The IC50 of the first is 2.4-fold higher: 240 nM for the first, 100 nM for the second.

First: Cc1ccc(CNC[C@H](NC(=O)CNC(=O)c2cc(C(F)(F)F)ccc2NCc2ccccc2)C(=O)NC(C)(C)C)c(C)c1 [(S)-N-(2-(3-(2,4-dimethylbenzylamino)-1-(tert-butylamino)-1-oxopropan-2-ylamino)-2-oxoethyl)-2-(benzylamino)-5-(trifluoromethyl)benzamide]
Second: Cc1ccc(CNC[C@H](NC(=O)CNC(=O)c2cc(C(F)(F)F)ccc2N)C(=O)NC(C)(C)C)c(C)c1 [(S)-N-(2-(3-(2,4-dimethylbenzylamino)-1-(tert-butylamino)-1-oxopropan-2-ylamino)-2-oxoethyl)-2-amino-5-(trifluoromethyl)benzamide]
The IC50 of the first is 6.7-fold lower: 39 nM for the first, 260 nM for the second. The first is the more potent here.

First: CCNc1cc(C(=O)NCC(=O)N[C@@H](CNCc2ccc(C)cc2C)C(=O)NC(C)(C)C)cc(C(F)(F)F)c1 [(S)-N-(2-(3-(2,4-dimethylbenzylamino)-1-(tert-butylamino)-1-oxopropan-2-ylamino)-2-oxoethyl)-3-(ethylamino)-5-(trifluoromethyl)benzamide]
Second: Cc1ccc(CNC[C@H](NC(=O)CNC(=O)c2cc(N)cc(C(F)(F)F)c2)C(=O)NC(C)(C)C)c(C)c1 [(S)-N-(2-(3-(2,4-dimethylbenzylamino)-1-(tert-butylamino)-1-oxopropan-2-ylamino)-2-oxoethyl)-3-amino-5-(trifluoromethyl)benzamide]
The IC50 of the first is 3.8-fold lower: 190 nM for the first, 720 nM for the second. The first is the more potent here.

Cc1ccc(CNC[C@H](NC(=O)CNC(=O)c2cccc(C(F)(F)F)c2)C(=O)NC(C)(C)C)c(C)c1 [(S)-N-(2-(3-(2,4-dimethylbenzylamino)-1-(tert-butylamino)-1-oxopropan-2-ylamino)-2-oxoethyl)-3-(trifluoromethyl)benzamide] and Cc1ccc(CNC[C@H](NC(=O)CNC(=O)c2cccc(C(F)(F)F)c2)C(N)=O)c(C)c1 [(S)-N-(2-(3-(2,4-dimethylbenzylamino)-1-amino-1-oxopropan-2-ylamino)-2-oxoethyl)-3-(trifluoromethyl)benzamide] cannot be ordered by IC50: > 3000 nM for the first, > 1500 nM for the second.
